Molecular target: T1, STING (Homo sapiens, UniProt Q86WV6, G230A/H232R/R293Q/R71H)
T1 construct: host or cells: THP1-Dual KO-IFNAR2 cells
Assay: STING reporter assay: luciferase reporter activity in THP1-Dual KO-IFNAR2 cells stimulated with 2'3'cGAMP
Assay type: cell-based
Conditions: 2′3′cGAMP 15 μM final, 24h, read-out: hSTING: EC50
Summary of the method: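 THP1-Dual KO-IFNAR2 cells (2×10E6 cells/mL) incubated with compounds at 0.0017-100 μM final plus Lipofectamine-transfected 2′3′cGAMP (15 μM final), 24 h at 37 °C, 5% CO2. Luciferase in supernatant read by QUANTI-Luc luminescence; EC50 derived.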

T1 sequence (Q86WV6 whole entry R71H/G230A/H232R/R293Q): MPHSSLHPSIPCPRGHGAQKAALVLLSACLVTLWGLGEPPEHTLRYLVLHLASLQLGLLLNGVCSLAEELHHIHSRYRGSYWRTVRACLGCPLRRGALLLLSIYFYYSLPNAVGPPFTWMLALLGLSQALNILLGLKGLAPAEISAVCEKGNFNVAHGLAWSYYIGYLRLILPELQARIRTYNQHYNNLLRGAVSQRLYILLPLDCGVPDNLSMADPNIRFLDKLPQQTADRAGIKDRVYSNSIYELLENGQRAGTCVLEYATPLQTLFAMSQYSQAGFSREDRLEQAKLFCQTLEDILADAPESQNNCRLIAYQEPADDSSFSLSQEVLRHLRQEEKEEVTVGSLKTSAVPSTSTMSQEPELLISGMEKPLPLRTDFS

Row | Structure (SMILES) | EC50 [nM]
1 | O=C(Nc1ccc2c(c1)oc(=O)n2Cc1ccccc1)C(=O)Nc1c[nH]c2cc(F)c(F)cc12 [Compound 273, N′-(3-benzyl-2-oxo-2,3-dihydro-1,3-benzoxazol-6-yl)-N-(5,6-difluoro-1H-indol-3-yl)ethanediamide] | 200 to 1000
2 | O=C(Nc1cnc2c(c1)CCC2)C(=O)Nc1c[nH]c2cc(F)c(F)cc12 [Compound 274, N′-{5H,6H,7H-cyclopenta[b]pyridin-3-yl}-N-(5,6-difluoro-1H-indol-3-yl)ethanediamide] | 1000 to 5000
3 | O=C(NCC(=O)c1cccc(C(F)(F)F)c1)C(=O)Nc1c[nH]c2cc(F)c(F)cc12 [Compound 275, N-(5,6-difluoro-1H-indol-3-yl)-N′-{2-oxo-2-[3-(trifluoromethyl)phenyl]ethyl} ethanediamide] | 200 to 1000
4 | CC(COc1ccc(C(F)(F)F)cc1)NC(=O)C(=O)Nc1c[nH]c2cc(F)c(F)cc12 (stereo not shown) [Compound 276, N-(5,6-difluoro-1H-indol-3-yl)-N′-{1-[4-(trifluoromethyl)phenoxy]propan-2-yl}ethanediamide] | 200 to 1000
5 | O=C(NCC(c1ccccc1)n1ccnc1)C(=O)Nc1c[nH]c2cc(F)c(F)cc12 (stereo not shown) [Compound 277, N-(5,6-difluoro-1H-indol-3-yl)-N′-[2-(1H-imidazol-1-yl)-2-phenylethyl] ethanediamide] | 5000 to 100000
6 | O=C(Nc1c[nH]c2cc(F)c(F)cc12)C(=O)NC1CCOC2(CCCC2)C1 (stereo not shown) [Compound 278] | 1000 to 5000
7 | O=C(Nc1c[nH]c2cc(F)c(F)cc12)C(=O)NC1CCC2(CCCC2)C1 (stereo not shown) [Compound 279] | 200 to 1000
8 | O=C(Nc1c[nH]c2cc(F)c(F)cc12)C(=O)NC1CCC2(CCCCC2)C1 (stereo not shown) [Compound 280] | 200 to 1000
9 | O=C(Nc1c[nH]c2cc(F)c(F)cc12)C(=O)NC1CCCC2(CCCCC2)C1 (stereo not shown) [Compound 281] | 200 to 1000
10 | O=C(Nc1c[nH]c2cc(F)c(F)cc12)C(=O)NC1CCC2(CCCCO2)CC1 (stereo not shown) [Compound 282] | 200 to 1000
11 | CC(CN(C)c1ccccn1)NC(=O)C(=O)Nc1c[nH]c2cc(F)c(F)cc12 (stereo not shown) [Compound 284] | 1000 to 5000
12 | Cc1ccc(CNC(=O)C(=O)Nc2c[nH]c3ccc(-c4cnn(CC(F)(F)F)c4)cc23)cc1OC(F)(F)F [Compound 285] | 40 to 200
13 | N#Cc1cc(NC(=O)C(=O)Nc2c[nH]c3cc(F)c(F)cc23)ccc1N1CCCC1 [Compound 286, N′-[3-cyano-4-(pyrrolidin-1-yl)phenyl]-N-(5,6-difluoro-1H-indol-3-yl)ethanediamide] | 200 to 1000
14 | COc1ncc(NC(=O)C(=O)Nc2c[nH]c3cc(F)c(F)cc23)cc1C(F)(F)F [Compound 287, N-(5,6-difluoro-1H-indol-3-yl)-N′-[6-methoxy-5-(trifluoromethyl)pyridin-3-yl]ethanediamide] | 1000 to 5000
15 | CC(NC(=O)C(=O)Nc1c[nH]c2cc(F)c(F)cc12)c1cccc(OC(F)(F)F)c1 (stereo not shown) [Compound 288, N-(5,6-difluoro-1H-indol-3-yl)-N′-{1-[3-(trifluoromethoxy)phenyl]ethyl} ethanediamide] | 200 to 1000
16 | Cc1cc(NC(=O)C(=O)Nc2c[nH]c3cc(F)c(F)cc23)ccc1OC(F)(F)F [Compound 289, N-(5,6-difluoro-1H-indol-3-yl)-N′-[3-methyl-4-(trifluoromethoxy)phenyl] ethanediamide] | 40 to 200
17 | O=C(NCCOc1cccnc1)C(=O)Nc1c[nH]c2cc(F)c(F)cc12 [Compound 290, N-(5,6-difluoro-1H-indol-3-yl)-N′-[2-(pyridin-3-yloxy)ethyl] ethanediamide] | 5000 to 100000
18 | C[C@@H](NC(=O)C(=O)Nc1c[nH]c2cc(F)c(F)cc12)c1cccc(C(F)(F)F)c1 [Compound 291, N-(5,6-difluoro-1H-indol-3-yl)-N′-[(1R)-1-[3-(trifluoromethyl)phenyl]ethyl] ethanediamide] | 200 to 1000
19 | O=C(Nc1ccc2c(c1)OC(F)(F)O2)C(=O)Nc1c[nH]c2cc(F)c(F)cc12 [Compound 292, N-(5,6-difluoro-1H-indol-3-yl)-N′-(2,2-difluoro-2H-1,3-benzodioxol-5-yl)ethanediamide] | 200 to 1000
20 | COc1cc(NC(=O)C(=O)Nc2c[nH]c3cc(F)c(F)cc23)ccc1N1CCCC1 [Compound 293, N-(5,6-difluoro-1H-indol-3-yl)-N′-[3-methoxy-4-(pyrrolidin-1-yl)phenyl] ethanediamide] | 200 to 1000
21 | O=C(NCCN1CCCc2ccccc21)C(=O)Nc1c[nH]c2cc(F)c(F)cc12 [Compound 294, N-(5,6-difluoro-1H-indol-3-yl)-N′-[2-(1,2,3,4-tetrahydroquinolin-1-yl)ethyl]ethanediamide] | 200 to 1000
22 | C#Cc1cc(NC(=O)C(=O)Nc2c[nH]c3cc(F)c(F)cc23)ccc1Cl [Compound 295, N′-(4-chloro-3-ethynylphenyl)-N-(5,6-difluoro-1H-indol-3-yl)ethanediamide] | 200 to 1000
23 | O=C(Nc1cnc2sccc2c1)C(=O)Nc1c[nH]c2cc(F)c(F)cc12 [Compound 296, N′-(5,6-difluoro-1H-indol-3-yl)-N-{thieno[2,3-b]pyridin-5-yl}ethanediamide] | 200 to 1000
24 | CC(C)(C)OC(=O)N1CCC2(CCC(NC(=O)C(=O)Nc3c[nH]c4cc(F)c(F)cc34)CC2)CC1 [Compound 297, tert-butyl 9-{[(5,6-difluoro-1H-indol-3-yl)carbamoyl] formamido}-3-azaspiro[5.5]undecane-3-carboxylate] | 200 to 1000

Other lines, results leading:

Row | EC50 [nM] | Structure (SMILES)
25 | 200 to 1000 | C[C@H](NC(=O)C(=O)Nc1c[nH]c2cc(F)c(F)cc12)c1ccc(C(F)(F)F)cn1 [Compound 298, N-(5,6-difluoro-1H-indol-3-yl)-N′-[(1S)-1-[5-(trifluoromethyl)pyridin-2-yl]ethyl]ethanediamide]
26 | 1000 to 5000 | COc1ccc(CCNC(=O)C(=O)Nc2c[nH]c3cc(F)c(F)cc23)cn1 [Compound 299, N-(5,6-difluoro-1H-indol-3-yl)-N′-[2-(6-methoxypyridin-3-yl)ethyl]ethanediamide]
27 | 5000 to 100000 | O=C(Nc1c[nH]c2cc(F)c(F)cc12)C(=O)NC1CCC(O)(C(F)(F)F)CC1 (stereo not shown) [Compound 300, N-(5,6-difluoro-1H-indol-3-yl)-N′-[4-hydroxy-4-(trifluoromethyl)cyclohexyl] ethanediamide]
28 | 200 to 1000 | O=C(Nc1c[nH]c2cc(F)c(F)cc12)C(=O)NC1COc2ccccc2C1 (stereo not shown) [Compound 301, N-(5,6-difluoro-1H-indol-3-yl)-N′-(3,4-dihydro-2H-1-benzopyran-3-yl)ethanediamide]
29 | 40 to 200 | O=C(Nc1ccc(C(F)(F)F)cc1)C(=O)Nc1c[nH]c2ccc(Br)cc12 [Compound 302]
30 | 200 to 1000 | CC(NC(=O)C(=O)Nc1c[nH]c2cc(F)c(F)cc12)c1cc(C(F)(F)F)c(Cl)cn1 (stereo not shown) [Compound 303]
31 | 200 to 1000 | O=C(NCc1ccc2ccccc2n1)C(=O)Nc1c[nH]c2cc(F)c(F)cc12 [Compound 304, N-(5,6-difluoro-1H-indol-3-yl)-N′-[(quinolin-2-yl)methyl] ethanediamide]
32 | 200 to 1000 | O=C(NCCOC1CCCC1)C(=O)Nc1c[nH]c2cc(F)c(F)cc12 [Compound 305, N'-[2-(cyclopentyloxy)ethyl]-N-(5,6-difluoro-1H-indol-3-yl)ethanediamide]
33 | 1000 to 5000 | CN(C(=O)CNC(=O)C(=O)Nc1c[nH]c2cc(F)c(F)cc12)c1ccccc1 [Compound 306, N-(5,6-difluoro-1H-indol-3-yl)-N′-{[methyl(phenyl)carbamoyl]methyl} ethanediamide]
34 | 200 to 1000 | CN(CCCNC(=O)C(=O)Nc1c[nH]c2cc(F)c(F)cc12)c1ccccc1 [Compound 307, N-(5,6-difluoro-1H-indol-3-yl)-N′-{3-[methyl(phenyl)amino]propyl}ethanediamide]
35 | 5000 to 100000 | CN(C)CC(NC(=O)C(=O)Nc1c[nH]c2cc(F)c(F)cc12)c1ccccc1 (stereo not shown) [Compound 308, N-(5,6-difluoro-1H-indol-3-yl)-N′-[2-(dimethylamino)-1-phenylethyl] ethanediamide]
36 | 200 to 1000 | O=C(NCC(=O)N1CCc2ccccc21)C(=O)Nc1c[nH]c2cc(F)c(F)cc12 [Compound 309, N-(5,6-difluoro-1H-indol-3-yl)-N′-[2-(2,3-dihydro-1H-indol-1-yl)-2-oxoethyl] ethanediamide]
37 | 1000 to 5000 | COCC(NC(=O)C(=O)Nc1c[nH]c2cc(F)c(F)cc12)c1ccccc1 (stereo not shown) [Compound 310, N-(5,6-difluoro-1H-indol-3-yl)-N′-(2-methoxy-1-phenylethyl) ethanediamide]
38 | 200 to 1000 | CCC(NC(=O)C(=O)Nc1c[nH]c2cc(F)c(F)cc12)c1cccc(C(F)(F)F)c1 (stereo not shown) [Compound 311, N-(5,6-difluoro-1H-indol-3-yl)-N′-{1-[3-(trifluoromethyl)phenyl]propyl} ethanediamide]
39 | 200 to 1000 | O=C(Nc1c[nH]c2cc(F)c(F)cc12)C(=O)NC(c1ccccc1)C(F)(F)F (stereo not shown) [Compound 312, N1-(5,6-difluoro-1H-indol-3-yl)-N2-(2,2,2-trifluoro-1-phenylethyl)oxalamide]
40 | 200 to 1000 | O=C(Nc1c[nH]c2cc(F)c(F)cc12)C(=O)NC1CCc2ccccc2C1 (stereo not shown) [Compound 313, N-(5,6-difluoro-1H-indol-3-yl)-N′-(1,2,3,4-tetrahydronaphthalen-2-yl)ethanediamide]
41 | 200 to 1000 | O=C(Nc1c[nH]c2cc(F)c(F)cc12)C(=O)NC1CCC2(CCCC2)CC1 [Compound 314]
42 | 40 to 200 | O=C(Nc1c[nH]c2cc(F)c(F)cc12)C(=O)NC1CCC(Oc2ccc(C(F)(F)F)cc2)CC1 (stereo not shown) [Compound 315]
43 | 200 to 1000 | O=C(Nc1c[nH]c2cc(F)c(F)cc12)C(=O)NC1CCC(Oc2ccccn2)CC1 (stereo not shown) [Compound 316]
44 | 200 to 1000 | O=C(Nc1c[nH]c2cc(F)c(F)cc12)C(=O)N1CCC(Oc2ccc(C(F)(F)F)cc2)CC1 [Compound 317]
45 | 200 to 1000 | Cc1cnc(CNC(=O)C(=O)Nc2c[nH]c3cc(F)c(F)cc23)cc1C(F)(F)F [Compound 318]
46 | 200 to 1000 | N#Cc1ccc2[nH]cc(NC(=O)C(=O)NCc3ccc(C(F)(F)F)c(Cl)c3)c2c1 [Compound 321]

— patent US20230021448A1, “COMPOUNDS AND COMPOSITIONS FOR TREATING CONDITIONS ASSOCIATED WITH STING ACTIVITY” (IFM Due, Inc., priority 2019, published 2023)
